Measured values as given in patent publication US6737383B1, “Herbicidal oxadiazolidines” (priority 1999, dated 2004).

Columns and labels:
bedstraw = test: Test B pre/postemergence bedstraw; assay type: in vivo, Galium aparine
Method in brief: (§1)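 Herbicidal effect was estimated by eye on a ten-point control scale after plants spent twelve to sixteen days in a greenhouse following soil or foliar treatment. Foliar sprays targeted plants at one to four leaves; all doses were formulated in a non-phytotoxic solvent with surfactant.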

blackgrass = test: Test B pre/postemergence blackgrass; assay type: in vivo, Alopecurus myosuroides
Method in brief: as §1

surinam grass = test: Test B pre/postemergence surinam grass; assay type: in vivo, Brachiaria decumbens
Method in brief: as §1

cocklebur = test: Test B pre/postemergence cocklebur; assay type: in vivo, Xanthium strumarium
Method in brief: as §1

corn = test: Test B pre/postemergence corn; assay type: in vivo, Zea mays
Method in brief: as §1

crabgrass = test: Test B pre/postemergence crabgrass; assay type: in vivo, Digitaria sanguinalis
Method in brief: as §1

giant foxtail = test: Test B pre/postemergence giant foxtail; assay type: in vivo, Setaria faberii
Method in brief: as §1

morningglory = test: Test B pre/postemergence morningglory; assay type: in vivo, Ipomoea hederacea
Method in brief: as §1

pigweed = test: Test B pre/postemergence pigweed; assay type: in vivo, Amaranthus retroflexus
Method in brief: as §1

rape = test: Test B pre/postemergence rape; assay type: in vivo, Brassica napus
Method in brief: as §1

soybean = test: Test B pre/postemergence soybean; assay type: in vivo, Glycine max
Method in brief: as §1

sugar beet = test: Test B pre/postemergence sugar beet; assay type: in vivo, Beta vulgaris
Method in brief: as §1

velvetleaf = test: Test B pre/postemergence velvetleaf; assay type: in vivo, Abutilon theophrasti
Method in brief: as §1

wheat = test: Test B pre/postemergence wheat; assay type: in vivo, Triticum aestivum
Method in brief: as §1

wild oat = test: Test B pre/postemergence wild oat; assay type: in vivo, Avena fatua
Method in brief: as §1

purple nutsedge = test: Test B pre/postemergence purple nutsedge; assay type: in vivo, Cyperus rotundus
Method in brief: as §1

[1] = Postemergence, Rate 62 g/ha, scale of 0 to 10, 0 is no effect, 10 is complete control
[2] = Postemergence, Rate 125 g/ha, scale 0 to 10, 0 is no effect, 10 is complete control
[3] = Postemergence, Rate 500 g/ha, scale 0 to 10, 0 is no effect, 10 is complete control
[4] = Preemergence, Rate 125 g/ha, scale 0 to 10, 0 is no effect, 10 is complete control
[5] = Preemergence, Rate 500 g/ha, scale of 0 to 10 where 0 is no effect and 10 is complete control
[6] = Rate 250 g/ha, Postemergence, scale of 0 to 10 where 0 is no effect and 10 is complete control
[7] = Preemergence, Rate 62 g/ha, scale 0 to 10 (0 no effect, 10 complete control)

Compound: CC(C)N(C(=O)n1oc(=O)n(CCCCF)c1=O)c1ccc(Cl)cc1 [Compound 551]
- Bedstraw plant response rating (bedstraw; [1]): 0
- Bedstraw plant response rating (bedstraw; [2]): 0
- Plant response rating, Bedstraw (bedstraw; [3]): 9
- Bedstraw plant response rating (bedstraw; [4]): 8
- Bedstraw plant response rating (bedstraw; [5]): 10
- Plant response rating, Bedstraw (bedstraw; [6]): 4
- Blackgrass plant response rating (blackgrass; [1]): 4
- Blackgrass plant response rating (blackgrass; [2]): 7
- Plant response rating, Blackgrass (blackgrass; [3]): 7
- Blackgrass plant response rating (blackgrass; [7]): 3
- Blackgrass plant response rating (blackgrass; [4]): 7
- Blackgrass plant response rating (0 to 10 scale) (blackgrass; Preemergence, Rate 250 g/ha): 9
- Blackgrass plant response rating (blackgrass; [5]): 9
- Plant response rating, Blackgrass (blackgrass; [6]): 7
- B. signalgrass plant response rating (surinam grass; [1]): 0
- B. signalgrass plant response rating (surinam grass; [2]): 0
- Plant response rating, B. signalgrass (surinam grass; [3]): 4
- B. signalgrass plant response rating (surinam grass; [7]): 4
- B. signalgrass plant response rating (surinam grass; [4]): 9
- B. signalgrass plant response rating (0 to 10 scale, 0 is no effect, 10 is complete control) (surinam grass; Preemergence, Rate 250 g/ha): 9
- B. signalgrass plant response rating (surinam grass; [5]): 9
- Plant response rating, B. signalgrass (surinam grass; [6]): 2
- Cocklebur plant response rating (cocklebur; [1]): 0
- Cocklebur plant response rating (cocklebur; [2]): 0
- Plant response rating, Cocklebur (cocklebur; [3]): 0
- Cocklebur plant response rating (cocklebur; [7]): 0
- Cocklebur plant response rating (cocklebur; [4]): 0
- Cocklebur plant response rating (0 to 10 scale) (cocklebur; Preemergence, Rate 250 g/ha): 0
- Cocklebur plant response rating (cocklebur; [5]): 0
- Plant response rating, Cocklebur (cocklebur; [6]): 0
- Corn plant response rating (corn; [1]): 0
- Corn plant response rating (corn; [2]): 0
- Plant response rating, Corn (corn; [3]): 0
- Corn plant response rating (corn; [7]): 0
- Corn plant response rating (corn; [4]): 0
- Corn plant response rating (0 to 10 scale) (corn; Preemergence, Rate 250 g/ha): 0
- Corn plant response rating (corn; [5]): 5
- Plant response rating, Corn (corn; [6]): 0
- Crabgrass plant response rating (crabgrass; [1]): 0
- Crabgrass plant response rating (crabgrass; [2]): 6
- Plant response rating, Crabgrass (crabgrass; [3]): 9
- Crabgrass plant response rating (crabgrass; [7]): 9
- Crabgrass plant response rating (crabgrass; [4]): 9
- Crabgrass plant response rating (0 to 10 scale) (crabgrass; Preemergence, Rate 250 g/ha): 10
- Crabgrass plant response rating (crabgrass; [5]): 10
- Plant response rating, Crabgrass (crabgrass; [6]): 8
- Giant foxtail plant response rating (giant foxtail; [1]): 0
- Plant response rating, Giant foxtail (giant foxtail; [3]): 5
- Giant foxtail plant response rating (giant foxtail; [7]): 10
- Giant foxtail plant response rating (giant foxtail; [4]): 10
- Giant foxtail plant response rating (0 to 10 scale) (giant foxtail; Preemergence, Rate 250 g/ha): 10
- Giant foxtail plant response rating (giant foxtail; [5]): 10
- Plant response rating, Giant foxtail (giant foxtail; [6]): 5
- Morningglory plant response rating (morningglory; [1]): 1
- Morningglory plant response rating (morningglory; [2]): 2
- Plant response rating, Morningglory (morningglory; [3]): 3
- Morningglory plant response rating (morningglory; [7]): 0
- Morningglory plant response rating (morningglory; [4]): 0
- Morningglory plant response rating (0 to 10 scale) (morningglory; Preemergence, Rate 250 g/ha): 0
- Morningglory plant response rating (morningglory; [5]): 0
- Plant response rating, Morningglory (morningglory; [6]): 4
- Redroot pigweed plant response rating (pigweed; [1]): 0
- Plant response rating, Redroot pigweed (pigweed; [3]): 7
- Redroot pigweed plant response rating (pigweed; [7]): 8
- Redroot pigweed plant response rating (pigweed; [4]): 9
- Redroot pigweed plant response rating (0 to 10 scale) (pigweed; Preemergence, Rate 250 g/ha): 10
- Redroot pigweed plant response rating (pigweed; [5]): 10
- Plant response rating, Redroot pigweed (pigweed; [6]): 3
- Rape plant response rating (rape; [1]): 3
- Rape plant response rating (rape; [2]): 7
- Plant response rating, Rape (rape; [3]): 5
- Rape plant response rating (rape; [7]): 0
- Rape plant response rating (rape; [4]): 3
- Rape plant response rating (0 to 10 scale) (rape; Preemergence, Rate 250 g/ha): 3
- Rape plant response rating (rape; [5]): 9
- Plant response rating, Rape (rape; [6]): 7
- Soybean plant response rating (soybean; [1]): 2
- Plant response rating, Soybean (soybean; [3]): 3
- Soybean plant response rating (soybean; [7]): 0
- Soybean plant response rating (soybean; [4]): 0
- Soybean plant response rating (0 to 10 scale) (soybean; Preemergence, Rate 250 g/ha): 0
- Soybean plant response rating (soybean; [5]): 0
- Plant response rating, Soybean (soybean; [6]): 3
- Sugarbeets plant response rating (sugar beet; [1]): 2
- Plant response rating, Sugarbeets (sugar beet; [3]): 8
- Sugarbeets plant response rating (sugar beet; [7]): 2
- Sugarbeets plant response rating (sugar beet; [4]): 6
- Sugarbeets plant response rating (0 to 10 scale) (sugar beet; Preemergence, Rate 250 g/ha): 7
- Sugarbeets plant response rating (sugar beet; [5]): 9
- Plant response rating, Sugarbeets (sugar beet; [6]): 5
- Velvetleaf plant response rating (velvetleaf; [1]): 0
- Plant response rating, Velvetleaf (velvetleaf; [3]): 3
- Velvetleaf plant response rating (velvetleaf; [7]): 0
- Velvetleaf plant response rating (velvetleaf; [4]): 0
- Velvetleaf plant response rating (0 to 10 scale) (velvetleaf; Preemergence, Rate 250 g/ha): 2
- Velvetleaf plant response rating (velvetleaf; [5]): 4
- Plant response rating, Velvetleaf (velvetleaf; [6]): 3
- Wheat plant response rating (wheat; [1]): 0
- Plant response rating, Wheat (wheat; [3]): 3
- Wheat plant response rating (wheat; [7]): 0
- Wheat plant response rating (wheat; [4]): 0
- Wheat plant response rating (0 to 10 scale) (wheat; Preemergence, Rate 250 g/ha): 3
- Wheat plant response rating (wheat; [5]): 6
- Plant response rating, Wheat (wheat; [6]): 0
- Wild oats plant response rating (wild oat; [1]): 0
- Plant response rating, Wild oats (wild oat; [3]): 5
- Wild oats plant response rating (wild oat; [7]): 0
- Wild oats plant response rating (wild oat; [4]): 3
- Wild oats plant response rating (0 to 10 scale) (wild oat; Preemergence, Rate 250 g/ha): 3
- Wild oats plant response rating (wild oat; [5]): 9
- Plant response rating, Wild oats (wild oat; [6]): 0
- Plant response rating, Nutsedge (purple nutsedge; [3]): 0
- Nutsedge plant response rating (purple nutsedge; [7]): 0
- Nutsedge plant response rating (purple nutsedge; [4]): 0
- Nutsedge plant response rating (0 to 10 scale) (purple nutsedge; Preemergence, Rate 250 g/ha): 0
- Nutsedge plant response rating (purple nutsedge; [5]): 0
